pIC50: −log10 of the molar value. Starred links: 1 amine or outer side, 2 acyl side, 3 side chain; linkers in the order of their positions; H or OH if unused. Non-standard residues stand in square brackets, D forms with d. Residues, ends and D or L forms follow the SMILES beside them. *: point of attachment. Hexanoyl(5S-NH,4S-OH,6-Ph) = O=C(CC[C@H](O)[C@H](Cc1ccccc1)N[*:1])[*:2]; Isovaleryl = CC(C)CC(=O)*; Boc = CC(C)(C)OC(=O)*
Columns and labels:
[1] = biological target: recombinant human renin (Homo sapiens (Human), UniProt P00797); assay: In-vitro fluorescence assay for identification of renin-inhibitory activity; format: biochemical; conditions: renin 10 nM, pH 7.2
Description: In order to identify modulators of renin activity, a continuous enzymatic test was carried out with a synthetic peptide which carries a fluorescent group Edans (=(5-(aminoethyl)aminonaphthalenesulfonate) which is quenched by energy transfer from a Dabcyl (4′-dimethylaminoazobenzene-4-carboxylate) group on the same molecule, in Greiner 384-well microtitre plates. Cleavage of the peptidic substrate by renin causes an increase in the fluorescence intensity. In order to determine the efficacy of substances, the time-dependent increase in the fluorescence intensity in the presence of the substance was compared with the time-dependent increase in fluorescence in the absence of substances. The reference substance used was renin inhibitor 2 (Z-Arg-Arg-Pro-Phe-His-Sta-Ile-His N-Boc-Lys methyl ester Z) (Sigma-Aldrich). The substrate used was renin FRET substrate I (DABCYL-g-Abu-Ile-His-Pro-Phe-His-Leu-Val-Ile-His-Thr EDANS) (Anaspec, Fremont Calif.). The enzyme employed was recombinant human renin (Proteos, Kalamazoo, Mich.) in a final concentration of 10 nM. The test was carried out in 50 mM Mops buffer, 1.5% (v/v) of DMSO, 0.1% (w/v) of Igepal®, pH 7.2, 0.5% (w/v) of BSA. 2 μl of each substance solution with serially diluted substance concentration were added to in each case 4 μl of renin solution and incubated at room temperature for 15 min. The reaction was started by addition of 4 μl of substrate solution (final concentration 5 μM). After carrying out a starting-point fluorescence measurement (excitation wavelength 340 nm/emission wavelength 495 nm) using an Envision multilabel reader (Perkin Elmer), the reaction was incubated at 37° C. for 60 min. The amount of peptide fragment cleaved off during the reaction time was subsequently measured by determination of the increase in the fluorescence intensity at 495 nm (excitation wavelength 340 nm).

[2] = biological target: cathepsin D isolated from the human liver (Homo sapiens (Human), UniProt P07339); assay: In-vitro fluorescence assay for identification of cathepsin D inhibitors; format: biochemical; conditions: cathepsin D 1.4 nM, pH 5.5; values in E notation; read-out: Cath D IC50
Description: In order to identify modulators of cathepsin D activity, a continuous enzymatic test was carried out with a synthetic peptide which carries a fluorescent group (MCA=(7-methoxycoumarin-4-yl)acetyl) which is quenched by energy transfer from a Dpn (2,4 dinitrophenyl) group on the same molecule, in Greiner 384-well nb microtitre plates. Cleavage of the peptidic substrate by cathepsin D causes an increase in the fluorescence intensity. In order to determine the efficacy of substances, the time-dependent increase in the fluorescence intensity in the presence of the substance was compared with the time-dependent increase in fluorescence in the absence of substances. The reference substance used was pepstatin A (Sigma-Aldrich). The substrate used was MCA-GKPILFFRLK(Dnp)d-R—NH2 (Enzo Life Sciences, Lor-rach). The enzyme employed was cathepsin D isolated from the human liver (Sigma-Aldrich) in a final concentration of 1.4 nM. The test was carried out in 100 mM sodium acetate buffer, 1.25% (v/v) of DMSO, 0.25% (w/v) of Chaps, pH 5.5. 2 μl of each substance solution with serially diluted substance concentration were added to in each case 4 μl of cathepsin D solution and incubated at room temperature for 10 min. The reaction was started by addition of 2 μl of substrate solution (final concentration 5 μM). After carrying out a starting-point fluorescence measurement (excitation wavelength 340 nm/emission wavelength 450 nm) using an Envision multilabel reader (Perkin Elmer), the reaction was incubated at room temperature for 60 min. The amount of peptide fragment cleaved off during the reaction time was subsequently measured by determination of the increase in the fluorescence intensity at 450 nm (excitation wavelength 340 nm).
The IC50 values of the compounds according to the invention can be obtained from Table 2 from Example 1.

Chain of recombinant human renin (P00797 67-406): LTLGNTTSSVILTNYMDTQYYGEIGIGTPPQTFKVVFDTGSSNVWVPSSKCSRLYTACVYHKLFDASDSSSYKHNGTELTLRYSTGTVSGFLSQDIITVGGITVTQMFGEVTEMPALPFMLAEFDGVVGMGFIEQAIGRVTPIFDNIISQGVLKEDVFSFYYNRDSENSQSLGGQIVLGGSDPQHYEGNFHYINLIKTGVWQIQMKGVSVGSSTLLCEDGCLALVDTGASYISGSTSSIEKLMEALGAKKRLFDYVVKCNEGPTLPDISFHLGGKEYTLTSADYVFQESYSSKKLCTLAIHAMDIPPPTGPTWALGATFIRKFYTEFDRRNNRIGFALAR
Chain of cathepsin D isolated from the human liver (P07339 65-161): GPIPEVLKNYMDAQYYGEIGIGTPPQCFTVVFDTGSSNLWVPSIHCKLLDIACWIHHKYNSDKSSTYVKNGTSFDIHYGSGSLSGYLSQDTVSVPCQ
Chain of cathepsin D isolated from the human liver (P07339 169-412): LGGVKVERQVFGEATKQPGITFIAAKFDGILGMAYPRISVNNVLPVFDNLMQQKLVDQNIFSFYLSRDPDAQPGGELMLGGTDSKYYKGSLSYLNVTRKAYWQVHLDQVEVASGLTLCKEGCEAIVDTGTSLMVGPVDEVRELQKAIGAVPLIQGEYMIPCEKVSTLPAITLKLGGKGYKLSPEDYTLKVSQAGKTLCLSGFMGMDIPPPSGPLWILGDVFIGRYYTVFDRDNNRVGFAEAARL

pIC50 [1] | Structure (SMILES) | pIC50 ([1]; values in E notation) | pIC50 [2]
 | CC[C@H](C)[C@H](NC(=O)CC[C@H](O)[C@H](Cc1ccccc1)NC(=O)[C@@H](NC(=O)[C@H](CC(C)C)NC(=O)OC(C)(C)C)C(C)C)C(=O)NCc1cnc(C)nc1N [Compound A1, {(S)-1-[(S)-1-((1S,2S)-4-{(1S,2S)-1-[(4-Amino-2-methylpyrimidin-5-yl-methyl)carbamoyl]-2-methylbutylcarbamoyl}-1-benzyl-2-hydroxybutyl-carbamoyl)-2-methylpropylcarbamoyl]-3-methylbutyl}carbamic acid tert-butyl ester] | 6.49 | 6.37
 | CC[C@H](C)[C@H](NC(=O)CC[C@H](O)[C@H](Cc1ccccc1)NC(=O)[C@@H](NC(=O)[C@H](CC(C)C)NC(=O)OC(C)(C)C)C(C)C)C(=O)N[C@H](C(=O)OC)C(C)C [Compound A2, (S)-2-((2S,3S)-2-{(4S,5S)-5-[(S)-2-((S)-2-tert-Butoxycarbonylamino-4-methylpentanoylamino)-3-methylbutyrylamino]-4-hydroxy-6-phenyl-hexanoylamino}-3-methylpentanoylamino)-3-methylbutyric acid methyl ester] (Boc-LV[Hexanoyl(5S-NH,4S-OH,6-Ph)]IV-OMe) | 5.96 | 7.39
< 4.52 | CC(C)[C@H](NC(=O)Cc1cccc(OC(F)(F)F)c1)C(=O)N[C@@H](Cc1ccccc1)[C@@H](O)CCC(=O)NCCc1ccccc1 [Compound A3, (4S,5S)-4-Hydroxy-5-{(S)-3-methyl-2-[2-(3-trifluoromethoxyphenyl)-acetylamino]butyrylamino}-6-phenylhexanoic acid phenethylamide] |  | 
< 4.52 | COc1ccc(OC(F)(F)F)cc1CC(=O)N[C@H](C(=O)N[C@@H](Cc1ccccc1)[C@@H](O)CCC(=O)NCCc1ccccc1)C(C)C [Compound A4, (4S,5S)-4-Hydroxy-5-{(S)-2-[2-(2-methoxy-5-trifluoromethoxyphenyl)-acetylamino]-3-methylbutyrylamino}-6-phenylhexanoic acid phenethyl-amide] |  | 5.40
< 4.52 | COc1ccc(CC(=O)N[C@H](C(=O)N[C@@H](Cc2ccccc2)[C@@H](O)CCC(=O)NCCc2ccccc2)C(C)C)cc1OC [Compound A5, (4S,5S)-5-{(S)-2-[2-(3,4-Dimethoxyphenyl)acetylamino]-3-methylbutyryl-amino}-4-hydroxy-6-phenylhexanoic acid phenethylamide] |  | 
< 4.52 | CC(C)[C@H](NC(=O)Cc1cccc(Oc2ccccc2)c1)C(=O)N[C@@H](Cc1ccccc1)[C@@H](O)CCC(=O)NCCc1ccccc1 [Compound A6, (4S,5S)-4-Hydroxy-5-{(S)-3-methyl-2-[2-(3-phenoxyphenyl)acetylamino]-butyrylamino}-6-phenylhexanoic acid phenethylamide] |  | 4.92
< 4.52 | COc1ccc(CC(=O)N[C@H](C(=O)N[C@@H](Cc2ccccc2)[C@@H](O)CCC(=O)NCCc2ccccc2)C(C)C)cc1 [Compound A7, (4S,5S)-4-Hydroxy-5-{(S)-2-[2-(4-methoxyphenyl)acetylamino]-3-methyl-butyrylamino}-6-phenylhexanoic acid phenethylamide] |  | 
< 4.52 | COc1cccc(CC(=O)N[C@H](C(=O)N[C@@H](Cc2ccccc2)[C@@H](O)CCC(=O)NCCc2ccccc2)C(C)C)c1 [Compound A8, (4S,5S)-4-Hydroxy-5-{(S)-2-[2-(3-methoxyphenyl)acetylamino]-3-methyl-butyrylamino}-6-phenylhexanoic acid phenethylamide] |  | 
< 4.52 | COc1ccccc1CC(=O)N[C@H](C(=O)N[C@@H](Cc1ccccc1)[C@@H](O)CCC(=O)NCCc1ccccc1)C(C)C [Compound A9, (4S,5S)-4-Hydroxy-5-{(S)-2-[2-(2-methoxyphenyl)acetylamino]-3-methyl-butyrylamino}-6-phenylhexanoic acid phenethylamide] |  | 
< 4.52 | Cc1ccc(OCC(=O)N[C@H](C(=O)N[C@@H](Cc2ccccc2)[C@@H](O)CCC(=O)NCCc2ccccc2)C(C)C)cc1C [Compound A10, (4S,5S)-5-{(S)-2-[2-(3,4-Dimethylphenoxy)acetylamino]-3-methylbutyryl-amino}-4-hydroxy-6-phenylhexanoic acid phenethylamide] |  | 
< 4.52 | CC(C)[C@H](NC(=O)Cc1cccc2ccccc12)C(=O)N[C@@H](Cc1ccccc1)[C@@H](O)CCC(=O)NCCc1ccccc1 [Compound A12, (4S,5S)-4-Hydroxy-5-[(S)-3-methyl-2-(2-naphthalen-1-ylacetylamino)-butyrylamino]-6-phenylhexanoic acid phenethylamide] |  | 
< 4.52 | CC(C)[C@H](NC(=O)C(c1ccccc1)c1ccccc1)C(=O)N[C@@H](Cc1ccccc1)[C@@H](O)CCC(=O)NCCc1ccccc1 [Compound A13, (4S,5S)-5-((S)-2-Diphenylacetylamino-3-methylbutyrylamino)-4-hydroxy-6-phenylhexanoic acid phenethylamide] |  | 5.37
< 4.52 | Cc1cccc(C)c1NC(=O)CC[C@H](O)[C@H](Cc1ccccc1)NC(=O)[C@@H](NC(=O)Cc1cccc(Oc2ccccc2)c1)C(C)C [Compound A14, (4S,5S)-4-Hydroxy-5-{(S)-3-methyl-2-[2-(3-phenoxyphenyl)acetylamino]-butyrylamino}-6-phenylhexanoic acid (2,6-dimethylphenyl)amide] |  | 
< 4.52 | CC(C)[C@H](NC(=O)Cc1cccc(Oc2ccccc2)c1)C(=O)N[C@@H](Cc1ccccc1)[C@@H](O)CCC(=O)NCc1ccccc1 [Compound A15, (4S,5S)-4-Hydroxy-5-{(S)-3-methyl-2-[2-(3-phenoxyphenyl)acetylamino]-butyrylamino}-6-phenylhexanoic acid benzylamide] |  | 
< 4.52 | CC(C)[C@H](NC(=O)Cc1cccc(Oc2ccccc2)c1)C(=O)N[C@@H](Cc1ccccc1)[C@@H](O)CCC(=O)N1CCc2ccccc21 [Compound A16, (S)-N-[(1S,2S)-1-Benzyl-5-(2,3-dihydroindol-1-yl)-2-hydroxy-5-oxopentyl]-3-methyl-2-[2-(3-phenoxyphenyl)acetylamino]butyramide] |  | 
< 4.52 | CCOc1cccc(CC(=O)N[C@H](C(=O)N[C@@H](Cc2ccccc2)[C@@H](O)CCC(=O)NCCc2ccccc2)C(C)C)c1 [Compound A19, (4S,5S)-5-{(S)-2-[2-(3-Ethoxyphenyl)acetylamino]-3-methylbutyrylamino}-4-hydroxy-6-phenylhexanoic acid phenethylamide] |  | 
< 4.52 | CC(C)[C@H](NC(=O)CCCc1ccccc1)C(=O)N[C@@H](Cc1ccccc1)[C@@H](O)CCC(=O)NCCc1ccccc1 [Compound A20, (4S,5S)-4-Hydroxy-5-[(S)-3-methyl-2-(4-phenylbutyrylamino)butyryl-amino]-6-phenylhexanoic acid phenethylamide] |  | 

Structure (SMILES) | pIC50 [1] | pIC50 ([1]; values in E notation) | pIC50 [2]
COC(=O)[C@@H](NC(=O)[C@H](Cc1ccccc1)NC(=O)CC[C@H](O)[C@H](Cc1ccccc1)NC(=O)[C@@H](NC(=O)[C@H](CC(C)C)NC(=O)CC(C)C)C(C)C)C(C)C [Compound A17, (S)-2-[(S)-2-((4S,5S)-4-Hydroxy-5-{(S)-3-methyl-2-[(S)-4-methyl-2-(3-methylbutyrylamino)pentanoylamino]butyrylamino}-6-phenylhexanoyl-amino)-3-phenylpropionylamino]-3-methylbutyric acid methyl ester] (Isovaleryl-LV[Hexanoyl(5S-NH,4S-OH,6-Ph)]FV-OMe) | < 4.52 |  | 6.59
